Assay results published in ChEMBL document CHEMBL5584337, “Structure-Based Drug Design of 2-Amino-[1,1'-biphenyl]-3-carboxamide Derivatives as Selective PKMYT1 Inhibitors for the Treatment of CCNE1-Amplified Breast Cancer” (J Med Chem, 2024).
Each block holds one compound with its values, some of them ahead of it. Calls of active or inactive are those of the source. The calls are words filed in the database; no cut-off is given here.

How the values were obtained:
HCC1569 [1] = assay: Antiproliferative activity against human HCC1569 cells incubated for 48 to 96 hrs by CCK-8 assay; assay type: functional, cell-based
ZR-75-1 [2] = assay: Antiproliferative activity against human ZR-75-1 cells incubated for 48 to 96 hrs by CCK-8 assay; assay type: functional, cell-based
[3] = target: Cyclin-dependent kinase 1 (Homo sapiens) (UniProt P06493); assay: Inhibition of CDK1 phosphorylation at Thr14 in human HCC1569 cells after 4 hrs by Western blotting analysis; assay type: cell-based; details: dose 0.1-2 µM
[4] = target: Protein-tyrosine kinase 6 (Homo sapiens, UniProt Q13882); assay: Inhibition of BRK (unknown origin)
[5] = target: Epithelial discoidin domain-containing receptor 1 (Homo sapiens, UniProt Q08345); assay: Inhibition of DDR1 (unknown origin)
[6] = target: Tyrosine-protein kinase Lck (Homo sapiens, UniProt P06239); assay: Inhibition of LCK (unknown origin)
[7] = target: Cyclin-dependent kinase 2 (Homo sapiens) (UniProt P24941); assay: Inhibition of CDK2 phosphorylation at Tyr15 in human HCC1569 cells at 0.1 to 2 uM after 4 hrs by Western blotting analysis; assay type: cell-based; details: dose 0.1-2 µM
[8] = target: Membrane-associated tyrosine- and threonine-specific cdc2-inhibitory kinase (Homo sapiens, UniProt Q99640); assay: Inhibition of recombinant human GST-tagged PKMYT1 (75 to 362 residues) expressed in insect cells using GTDEGIYDVPLLG as substrate preincubated for 15 mins followed by substrate and ATP addition and measured after 1 hr by ADP-Glo kinase assay; design: species or system Insect cell
Activated CDC42 kinase 1 = Activated CDC42 kinase 1 (Homo sapiens, UniProt Q07912); assay: Inhibition of ACK1 (unknown origin)
HCC1569 [9] = assay: Inhibition of colony formation in CCNE1-amplified human HCC1569 cells incubated for 14 days by crystal violet staining based microplate reader assay; assay type: functional, cell-based; details: HCC1569, 336 h
[10] = target: Tyrosine-protein kinase ABL2 (Homo sapiens, UniProt P42684); assay: Inhibition of Arg (unknown origin)
HCC1569 [11] = assay: Induction of DNA damage in human HCC1569 cells assessed as upregulation of gammaH2AX level after 4 hrs by Western blotting analysis; assay type: functional, cell-based; details: dose 0.1-2 µM
Ephrin type-B receptor 2 = Ephrin type-B receptor 2 (Homo sapiens, UniProt P29323); assay: Inhibition of EphB2 (unknown origin)
[12] = target: Tyrosine-protein kinase Fgr (Homo sapiens, UniProt P09769); assay: Inhibition of Fgr (unknown origin)
Wee1-like protein kinase = Wee1-like protein kinase (Homo sapiens, UniProt P30291); assay: Inhibition of recombinant full-length human GST-tagged Wee1 expressed in insect cells using KIGEGTYGVVYKG as substrate preincubated for 15 mins followed by substrate and ATP addition and measured after 1 hr by ADP-Glo kinase assay; design: species or system Insect cell
Ephrin type-B receptor 4 = Ephrin type-B receptor 4 (Homo sapiens, UniProt P54760); assay: Inhibition of EphB4 (unknown origin)
HCC1569 [13] = assay: Induction of DNA damage in human HCC1569 cells assessed as upregulation of gammaH2AX level at 2 uM by Western blotting analysis; assay type: functional, cell-based; details: time 0.5-12 hrs, TDE = time-dependent effect
[14] = target: Proto-oncogene tyrosine-protein kinase Src (Homo sapiens, UniProt P12931); assay: Inhibition of cSRC (unknown origin)
[15] = Clearance in Sprague-Dawley rat at 10 mg/kg, po measured upto 24 hrs by LC-MS/MS analysis; assay type: ADME, organism-based; details: in vivo
HCC1569 [16] = assay: Synergistic cytotoxicity against human HCC1569 cells after 48 to 96 hrs; assay type: functional, cell-based; details: time 48-96 hrs
[17] = target: Tyrosine-protein kinase Blk (Homo sapiens, UniProt P51451); assay: Inhibition of BLK (unknown origin)
Ephrin type-A receptor 1 = Ephrin type-A receptor 1 (Homo sapiens, UniProt P21709); assay: Inhibition of EphA1 (unknown origin)
[18] = AUC(0 to t) in Sprague-Dawley rat at 10 mg/kg, po measured upto 24 hrs by LC-MS/MS analysis; assay type: ADME, organism-based; details: in vivo
HCC1569 [19] = assay: Induction of DNA damage in human HCC1569 cells assessed as upregulation of gammaH2AX level at 62.5 to 500 nM after 48 hrs in presence of gemcitabine by Western blotting analysis; assay type: functional, cell-based; details: dose 62.5-500 nM
[20] = target: Tyrosine-protein kinase Lyn (Homo sapiens, UniProt P07948); assay: Inhibition of Lyn (unknown origin)
[21] = Cmax in Sprague-Dawley rat at 10 mg/kg, po measured upto 24 hrs by LC-MS/MS analysis; assay type: ADME, organism-based; details: in vivo
Ephrin type-B receptor 1 = Ephrin type-B receptor 1 (Homo sapiens, UniProt P54762); assay: Inhibition of EphB1 (unknown origin)
ZR-75-1 [22] = assay: Inhibition of colony formation in human ZR-75-1 cells incubated for 14 days by crystal violet staining based microplate reader assay; assay type: functional, cell-based; details: ZR-75-1, 336 h
[23] = target: Tyrosine-protein kinase Yes (Homo sapiens, UniProt P07947); assay: Inhibition of YES (unknown origin)
[24] = target: Cyclin-dependent kinase 1 (Homo sapiens) (UniProt P06493); assay: Inhibition of CDK1 phosphorylation at Thr14 in human HCC1569 cells at 2 uM after 8 to 12 hrs by Western blotting analysis; assay type: cell-based; details: time 8-12 hrs
[25] = target: Cyclin-dependent kinase 1 (Homo sapiens) (UniProt P06493); assay: Inhibition of CDK1 phosphorylation at […] in human HCC1569 cells at 2 uM after 0.5 to 12 hrs by Western blotting analysis; assay type: cell-based; details: time 0.5-12 hrs
[26] = target: Tyrosine-protein kinase HCK (Homo sapiens, UniProt P08631); assay: Inhibition of HCK (unknown origin)

Sequence of Cyclin-dependent kinase 1 (Homo sapiens) (P06493 whole entry, looked up): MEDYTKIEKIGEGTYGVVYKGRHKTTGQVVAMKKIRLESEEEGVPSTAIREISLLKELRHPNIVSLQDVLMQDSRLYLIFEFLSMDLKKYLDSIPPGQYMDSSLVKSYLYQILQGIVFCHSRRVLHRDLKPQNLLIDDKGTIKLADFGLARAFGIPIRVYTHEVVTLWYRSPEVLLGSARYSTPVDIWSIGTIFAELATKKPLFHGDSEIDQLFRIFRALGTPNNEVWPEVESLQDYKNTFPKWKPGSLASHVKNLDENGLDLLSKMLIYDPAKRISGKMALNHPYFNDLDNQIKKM
Sequence of Membrane-associated tyrosine- and threonine-specific cdc2-inhibitory kinase (Q99640 whole entry, the tested form may be a part): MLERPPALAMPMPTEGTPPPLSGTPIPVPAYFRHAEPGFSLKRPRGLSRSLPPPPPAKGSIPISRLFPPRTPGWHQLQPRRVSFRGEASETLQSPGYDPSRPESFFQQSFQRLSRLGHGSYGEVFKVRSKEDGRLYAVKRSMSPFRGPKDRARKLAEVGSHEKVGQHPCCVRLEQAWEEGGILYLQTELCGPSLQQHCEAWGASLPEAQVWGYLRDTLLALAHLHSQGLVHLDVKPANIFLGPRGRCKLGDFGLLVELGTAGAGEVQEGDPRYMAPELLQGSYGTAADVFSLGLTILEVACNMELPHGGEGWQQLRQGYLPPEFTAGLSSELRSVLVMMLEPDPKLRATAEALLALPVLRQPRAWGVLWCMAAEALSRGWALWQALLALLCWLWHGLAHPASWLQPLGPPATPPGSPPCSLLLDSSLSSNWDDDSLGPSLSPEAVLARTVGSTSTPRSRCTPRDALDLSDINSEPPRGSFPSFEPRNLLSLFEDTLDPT
Sequence of Tyrosine-protein kinase Fgr (P09769 whole entry): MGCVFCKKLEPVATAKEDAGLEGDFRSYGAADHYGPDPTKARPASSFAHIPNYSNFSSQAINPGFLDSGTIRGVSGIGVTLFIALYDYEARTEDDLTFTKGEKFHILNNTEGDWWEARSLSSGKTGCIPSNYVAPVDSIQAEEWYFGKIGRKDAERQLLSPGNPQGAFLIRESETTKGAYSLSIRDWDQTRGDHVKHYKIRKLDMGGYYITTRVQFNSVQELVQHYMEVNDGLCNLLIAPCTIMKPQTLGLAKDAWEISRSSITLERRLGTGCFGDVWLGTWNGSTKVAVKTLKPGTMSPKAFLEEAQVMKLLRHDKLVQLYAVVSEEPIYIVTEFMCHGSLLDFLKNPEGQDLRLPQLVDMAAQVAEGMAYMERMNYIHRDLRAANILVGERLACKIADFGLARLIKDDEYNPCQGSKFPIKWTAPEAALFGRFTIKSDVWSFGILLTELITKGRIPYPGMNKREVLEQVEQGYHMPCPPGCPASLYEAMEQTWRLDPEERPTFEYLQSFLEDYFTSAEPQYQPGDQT
Sequence of Activated CDC42 kinase 1 (Q07912 whole entry): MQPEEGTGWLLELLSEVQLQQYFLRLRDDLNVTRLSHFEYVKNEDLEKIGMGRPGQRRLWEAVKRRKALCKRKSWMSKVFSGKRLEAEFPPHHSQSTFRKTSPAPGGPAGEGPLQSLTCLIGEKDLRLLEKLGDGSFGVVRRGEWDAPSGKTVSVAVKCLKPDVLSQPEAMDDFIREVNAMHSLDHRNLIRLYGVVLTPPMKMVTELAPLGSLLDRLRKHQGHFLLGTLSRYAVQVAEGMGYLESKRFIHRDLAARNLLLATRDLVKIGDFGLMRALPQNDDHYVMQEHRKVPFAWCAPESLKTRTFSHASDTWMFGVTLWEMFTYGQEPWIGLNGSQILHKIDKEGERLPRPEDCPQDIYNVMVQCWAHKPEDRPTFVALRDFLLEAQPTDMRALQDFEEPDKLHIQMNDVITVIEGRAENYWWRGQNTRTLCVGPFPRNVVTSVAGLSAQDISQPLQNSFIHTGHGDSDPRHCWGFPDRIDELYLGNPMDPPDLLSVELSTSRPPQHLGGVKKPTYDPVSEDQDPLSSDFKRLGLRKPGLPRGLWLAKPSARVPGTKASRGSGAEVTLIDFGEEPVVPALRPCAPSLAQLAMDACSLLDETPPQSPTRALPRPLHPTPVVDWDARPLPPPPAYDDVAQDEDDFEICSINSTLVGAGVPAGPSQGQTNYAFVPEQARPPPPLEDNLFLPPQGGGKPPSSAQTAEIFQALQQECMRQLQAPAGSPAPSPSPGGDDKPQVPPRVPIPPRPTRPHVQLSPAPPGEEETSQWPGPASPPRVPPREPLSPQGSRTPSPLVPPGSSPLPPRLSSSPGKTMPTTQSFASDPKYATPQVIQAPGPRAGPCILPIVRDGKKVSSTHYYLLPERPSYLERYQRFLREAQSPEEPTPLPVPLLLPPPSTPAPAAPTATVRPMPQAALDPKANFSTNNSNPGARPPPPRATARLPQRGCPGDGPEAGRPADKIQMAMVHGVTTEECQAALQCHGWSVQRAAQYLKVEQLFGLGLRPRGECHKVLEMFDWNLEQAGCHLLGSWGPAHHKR
Sequence of Ephrin type-B receptor 2 (P29323 whole entry): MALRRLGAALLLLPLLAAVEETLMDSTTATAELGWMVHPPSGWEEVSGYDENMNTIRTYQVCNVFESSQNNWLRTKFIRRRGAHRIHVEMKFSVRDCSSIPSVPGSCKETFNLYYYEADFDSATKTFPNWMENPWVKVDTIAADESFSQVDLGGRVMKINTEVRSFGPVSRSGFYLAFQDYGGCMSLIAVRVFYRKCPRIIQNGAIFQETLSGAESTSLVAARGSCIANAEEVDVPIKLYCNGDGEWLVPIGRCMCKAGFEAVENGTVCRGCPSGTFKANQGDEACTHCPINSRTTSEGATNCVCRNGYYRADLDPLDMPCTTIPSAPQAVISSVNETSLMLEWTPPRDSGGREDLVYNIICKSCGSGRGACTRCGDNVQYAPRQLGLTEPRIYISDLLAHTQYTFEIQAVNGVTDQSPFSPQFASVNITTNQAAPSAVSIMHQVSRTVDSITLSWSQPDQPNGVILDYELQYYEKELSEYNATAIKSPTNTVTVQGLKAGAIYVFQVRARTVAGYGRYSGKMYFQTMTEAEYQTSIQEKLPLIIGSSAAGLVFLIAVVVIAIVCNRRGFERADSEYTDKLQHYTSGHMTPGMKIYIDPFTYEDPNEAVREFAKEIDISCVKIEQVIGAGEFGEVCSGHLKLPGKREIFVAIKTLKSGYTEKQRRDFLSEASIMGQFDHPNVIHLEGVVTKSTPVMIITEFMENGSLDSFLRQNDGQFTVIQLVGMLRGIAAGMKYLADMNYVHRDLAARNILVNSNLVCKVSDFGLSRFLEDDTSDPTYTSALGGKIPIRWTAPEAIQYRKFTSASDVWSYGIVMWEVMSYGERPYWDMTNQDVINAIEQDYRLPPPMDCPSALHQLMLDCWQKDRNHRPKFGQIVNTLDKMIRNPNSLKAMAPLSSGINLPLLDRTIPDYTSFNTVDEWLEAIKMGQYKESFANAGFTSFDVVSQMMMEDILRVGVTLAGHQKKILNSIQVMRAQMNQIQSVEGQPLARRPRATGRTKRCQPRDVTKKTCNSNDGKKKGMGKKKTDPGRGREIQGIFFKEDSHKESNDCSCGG
Sequence of Protein-tyrosine kinase 6 (Q13882 whole entry, the tested form may be a part): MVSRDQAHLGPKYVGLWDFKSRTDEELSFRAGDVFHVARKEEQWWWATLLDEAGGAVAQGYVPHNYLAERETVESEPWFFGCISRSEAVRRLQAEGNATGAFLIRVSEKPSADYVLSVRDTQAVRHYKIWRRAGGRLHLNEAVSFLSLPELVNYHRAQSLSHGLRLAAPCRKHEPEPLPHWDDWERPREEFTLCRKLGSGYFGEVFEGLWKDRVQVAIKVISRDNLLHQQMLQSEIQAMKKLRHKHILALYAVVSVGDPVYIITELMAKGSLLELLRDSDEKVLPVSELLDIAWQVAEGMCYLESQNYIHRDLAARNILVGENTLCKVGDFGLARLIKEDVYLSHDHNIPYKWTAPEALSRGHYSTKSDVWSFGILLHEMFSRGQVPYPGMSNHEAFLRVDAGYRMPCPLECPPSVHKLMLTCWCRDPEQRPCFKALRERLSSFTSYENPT
Sequence of Tyrosine-protein kinase Blk (P51451 whole entry): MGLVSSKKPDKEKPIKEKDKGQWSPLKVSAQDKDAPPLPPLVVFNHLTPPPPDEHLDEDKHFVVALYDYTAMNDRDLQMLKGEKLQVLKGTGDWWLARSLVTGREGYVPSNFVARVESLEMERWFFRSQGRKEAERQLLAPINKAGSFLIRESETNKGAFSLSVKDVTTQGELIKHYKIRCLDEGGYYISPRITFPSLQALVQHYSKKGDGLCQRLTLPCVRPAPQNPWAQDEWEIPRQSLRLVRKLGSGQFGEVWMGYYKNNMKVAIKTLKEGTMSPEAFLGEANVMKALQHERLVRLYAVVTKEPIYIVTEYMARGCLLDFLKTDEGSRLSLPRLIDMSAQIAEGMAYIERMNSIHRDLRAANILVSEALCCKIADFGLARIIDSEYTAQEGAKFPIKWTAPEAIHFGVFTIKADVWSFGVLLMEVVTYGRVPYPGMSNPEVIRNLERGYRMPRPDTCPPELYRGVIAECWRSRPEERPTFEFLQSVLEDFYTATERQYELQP
Sequence of Proto-oncogene tyrosine-protein kinase Src (P12931 2-536 limits assumed): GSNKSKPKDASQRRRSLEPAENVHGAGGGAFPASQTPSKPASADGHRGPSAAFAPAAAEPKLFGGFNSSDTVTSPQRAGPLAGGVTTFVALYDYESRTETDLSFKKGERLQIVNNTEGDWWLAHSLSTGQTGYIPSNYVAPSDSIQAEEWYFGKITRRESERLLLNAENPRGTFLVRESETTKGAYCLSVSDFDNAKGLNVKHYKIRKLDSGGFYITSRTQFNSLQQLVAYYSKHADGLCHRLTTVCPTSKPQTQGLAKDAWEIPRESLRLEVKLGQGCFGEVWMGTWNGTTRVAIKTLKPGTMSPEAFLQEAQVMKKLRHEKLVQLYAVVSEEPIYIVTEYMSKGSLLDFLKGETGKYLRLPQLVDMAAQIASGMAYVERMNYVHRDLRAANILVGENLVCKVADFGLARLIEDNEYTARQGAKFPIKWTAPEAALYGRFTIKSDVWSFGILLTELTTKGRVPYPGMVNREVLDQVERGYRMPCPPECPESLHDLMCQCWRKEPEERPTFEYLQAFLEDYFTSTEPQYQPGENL

Structure (SMILES): Cc1ccc(O)c(C)c1-c1cc(-c2ccnc(N3CCOCC3)c2)cc(C(N)=O)c1N
IC50 (HCC1569 [1]): 1840 nM | IC50 (ZR-75-1 [2]): > 20000 nM

Structure (SMILES): CNCCCOc1cc(-c2cc(C(N)=O)c(N)c(-c3c(C)ccc(O)c3C)c2)ccn1
IC50 (HCC1569 [1]): 2490 nM | IC50 (ZR-75-1 [2]): > 20000 nM

Structure (SMILES): Cc1ccc(O)c(C)c1-c1cc(-c2ccnc(OC3CCNCC3)c2)cc(C(N)=O)c1N
IC50 (HCC1569 [1]): 3840 nM | IC50 (ZR-75-1 [2]): > 20000 nM

Structure (SMILES): Cc1ccc(O)c(C)c1-c1cc(-c2ccnc(OC[C@H]3CCNC3)c2)cc(C(N)=O)c1N
IC50 (HCC1569 [1]): 2190 nM | IC50 (ZR-75-1 [2]): 8530 nM

Structure (SMILES): Cc1ccc(O)c(C)c1-c1cc(-c2ccnc(N3C[C@@H]4C[C@H]3CN4)c2)cc(C(N)=O)c1N
IC50 (HCC1569 [1]): 7780 nM | IC50 (ZR-75-1 [2]): > 20000 nM

Structure (SMILES): Cc1ccc(O)c(C)c1-c1cc(-c2ccnc(N3CCNCC3)c2)cc(C(N)=O)c1N
IC50 (HCC1569 [1]): 1390 nM | IC50 (ZR-75-1 [2]): > 20000 nM

Structure (SMILES): Cc1ccc(O)c(C)c1-c1cc(-c2ccnc(OCCCN)c2)cc(C(N)=O)c1N
IC50 (HCC1569 [1]): 9480 nM | IC50 (ZR-75-1 [2]): 15400 nM

Structure (SMILES): Cc1ccc(O)c(C)c1-c1cc(-c2ccnc(N3CC[C@H](N)C3)c2)cc(C(N)=O)c1N
IC50 (HCC1569 [1]): 1650 nM | IC50 (ZR-75-1 [2]): > 20000 nM

Structure (SMILES): Cc1ccc(O)c(C)c1-c1cc(-c2ccnc(N3C4CNCC3C4)c2)cc(C(N)=O)c1N
IC50 (HCC1569 [1]): > 20000 nM | IC50 (ZR-75-1 [2]): > 20000 nM

Structure (SMILES): Cc1ccc(O)c(C)c1-c1cc(-c2ccnc(OCCN)c2)cc(C(N)=O)c1N
IC50 (HCC1569 [1]): 1660 nM | IC50 (ZR-75-1 [2]): 4400 nM

Stronger by IC50 (HCC1569 [1]), values ahead:

IC50 (HCC1569 [1]): 1180 nM
Structure (SMILES): Cc1ccc(O)c(C)c1-c1cc(-c2ccnc(OC[C@@H]3CCCN3)c2)cc(C(N)=O)c1N
IC50 (ZR-75-1 [2]): 7120 nM

IC50 (HCC1569 [1]): 290 nM
Structure (SMILES): Cc1ccc(O)c(C)c1-c1cc(-c2ccnc(N3CCCNCC3)c2)cc(C(N)=O)c1N
IC50 (ZR-75-1 [2]): 4830 nM

inhibition [3]: Dose-Dependent Effect | IC50 (HCC1569 [1]): 250 nM | IC50 [4]: 8 nM | IC50 [5]: 10.6 nM | IC50 [6]: 14.5 nM | inhibition [7]: inactive | IC50 [8]: 16.5 nM | IC50 (Activated CDC42 kinase 1): 268 nM | EC50 (HCC1569 [9]): 117 nM | IC50 [10]: 10.9 nM | IC50 (Ephrin type-B receptor 2): 27.2 nM | IC50 [12]: 9.3 nM | IC50 (Ephrin type-B receptor 4): 134 nM | IC50 [14]: 9.9 nM | CL [15]: 92.17 mL/min/kg | IC50 [17]: 60.1 nM | IC50 (Ephrin type-A receptor 1): 110 nM | AUCt [18]: 6.51 ng·h/mL | IC50 [20]: 18.3 nM | Cmax [21]: 6.17 ng/mL | IC50 (Ephrin type-B receptor 1): 41.6 nM | EC50 (ZR-75-1 [22]): > 5000 nM | IC50 [23]: > 1000 nM | inhibition [24]: 100% | inhibition [25]: inactive | IC50 [26]: 48.6 nM
Structure (SMILES): Cc1ccc(O)c(C)c1-c1cc(-c2cc(F)nc(N3CC[C@@H](N)C3)c2)cc(C(N)=O)c1N
IC50 (ZR-75-1 [2]): 4960 nM | Activity (HCC1569 [11]): Dose-Dependent Effect | IC50 (Wee1-like protein kinase): 8200 nM | Activity (HCC1569 [13]): Tde | Activity (HCC1569 [16]): Active | Activity (HCC1569 [19]): Active

IC50 (HCC1569 [1]): 770 nM | IC50 [8]: 101 nM
Structure (SMILES): Cc1ccc(O)c(C)c1-c1cc(-c2ccncc2)cc(C(N)=O)c1N
IC50 (ZR-75-1 [2]): 11600 nM

IC50 (HCC1569 [1]): 470 nM
Structure (SMILES): CN[C@@H]1CCN(c2cc(-c3cc(C(N)=O)c(N)c(-c4c(C)ccc(O)c4C)c3)ccn2)C1
IC50 (ZR-75-1 [2]): 5600 nM

IC50 (HCC1569 [1]): 800 nM
Structure (SMILES): Cc1ccc(O)c(C)c1-c1cc(-c2cc(OC(F)F)nc(N3CC[C@@H](N)C3)c2)cc(C(N)=O)c1N
IC50 (ZR-75-1 [2]): 4150 nM

IC50 (HCC1569 [1]): 290 nM
Structure (SMILES): Cc1ccc(O)c(C)c1-c1cc(-c2ccnc(N3CC[C@@H](N)C3)c2)cc(C(N)=O)c1N
IC50 (ZR-75-1 [2]): 8490 nM
